Here are results for 23 molecules from patent US6960611B2, “Sulfonyl-containing 2,3-diarylindole compounds, methods for making same, and methods of use thereof” (Institute of Materia Medica, priority 2002, dated 2005).

One series concerns the target T1, COX-2 (Mus musculus, UniProt Q05769).
T1 construct: endogenous in cells; host or cells: thioglycollate-elicited peritoneal macrophages of male C57BL-6J mice, stimulated with LPS
T1 sequence (Q05769 18-604): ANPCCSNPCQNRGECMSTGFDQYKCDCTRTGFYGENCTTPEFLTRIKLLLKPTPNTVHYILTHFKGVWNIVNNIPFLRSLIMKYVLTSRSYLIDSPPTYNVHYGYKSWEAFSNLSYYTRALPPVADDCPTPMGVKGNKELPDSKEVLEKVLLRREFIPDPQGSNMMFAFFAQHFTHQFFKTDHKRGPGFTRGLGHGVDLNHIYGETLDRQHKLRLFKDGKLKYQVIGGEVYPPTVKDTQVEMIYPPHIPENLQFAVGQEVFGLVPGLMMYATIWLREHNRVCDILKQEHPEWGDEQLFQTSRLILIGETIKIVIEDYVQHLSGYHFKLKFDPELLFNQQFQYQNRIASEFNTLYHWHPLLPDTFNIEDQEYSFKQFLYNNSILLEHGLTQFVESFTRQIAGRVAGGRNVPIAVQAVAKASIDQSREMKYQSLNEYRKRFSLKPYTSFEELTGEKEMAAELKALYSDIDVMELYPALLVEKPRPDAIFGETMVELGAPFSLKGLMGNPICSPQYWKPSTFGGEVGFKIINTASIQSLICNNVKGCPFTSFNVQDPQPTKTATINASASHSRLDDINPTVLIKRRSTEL
As to the kind of experiment: COX-2 assay: PGE2 release (RIA) from LPS-stimulated mouse peritoneal macrophages. Format: cell-based, mice. The conditions noted are these: LPS 1 mg/L 9 h, PGE2 by RIA. Here is the method:
Cell culture: Adherent macrophages were harvested from the peritoneal cells of male mice (C57BL-6J, Level 2, from Experiment Animal Center, Academy of Military Medical Science) 3 d after the injection (ip) of brewer thioglycollate medium (5 mL/100 g body weight). […] Cell viability was examined by trypan blue dye exclusion. All incubation procedures were performed with 5% CO2 in humidified air at 37° C.
COX-2 assay: Macrophages were incubated with test compound at different concentrations or solvent (Me2SO) for 1 h and were stimulated with LPS 1 mg/L for 9 h. The amount of PGE2 in supernatants was measured by RIA. The inhibitory ratio was calculated using the same Formula as in COX-1 assay section. Cs, Ct, Cc refer to PGE2 concentration in supernatants of LPS, test compound, and control groups, respectively.
Statistical analysis: Data were expressed as the mean±SD of more than three independent experiments. Dose-inhibitory effect curves were fit through “uphill dose response curves, variable slope” using Prism, GraphPad (version 3.00): [formula]

The subject of series [1] is carrageenan-induced foot pad edema. The series can be described thus: Rat carrageenan-induced foot pad edema assay. Format: in vivo. Conditions: 10 mg/kg oral. Here is the method:
Male Sprgue-Dawley rats (190-220 g ) were fasted with free access to water at least 16 h prior experiments. The rats were dosed orally with a 1 ml suspension of test compound in vehicle (0.5% methyl cellulose and 0.025% Tween-20) or with vehicle alone. One hour later a subplantar injection of 0.1 ml of 1% solution of carageenan in 0.9% strile saline was administered to the right hind foot pad. Paw volume was measured with a displacement plethysmometer 2, 3, and 4 h after carrageenan injection.
For orientation: The carrageenan paw model is a standard test of acute inflammation.

What is called IC50 is the midpoint of a concentration-inhibition curve. A lower IC50 goes with greater potency. Regarding “2-(4-methylsulfonylphenyl)-3-phenyl-5-methylindole [Example 83]”, the midpoint of inhibition at COX-2, the IC50, lay at 0.278 nM. For the same molecule, the “inhibitory percentage of edema” value is 46.1% in series [1] (2 h after carrageenan), 47.1% in series [1] (3 h after carrageenan) and 46.1% in series [1] (4 h after carrageenan).
Turning to `Cc1ccc(-c2cc(C(F)(F)F)nn2-c2ccc(S(N)(=O)=O)cc2)cc1` [Celecoxib, reference compound], the edema (paw volume increase) in series [1] (2 h after carrageenan) came to 31.1 ± 7.87%; in series [1] (3 h after carrageenan), 53.2 ± 12.6%; in series [1] (4 h after carrageenan) it was 48.8 ± 8.11%. The “inhibitory percentage of edema” value in series [1] (3 h after carrageenan) is on record as 51.6%; in series [1] (4 h after carrageenan) it was 48.0%.
The melting point is the temperature, or range, at which the solid turns liquid. In turn, `CS(=O)(=O)c1ccc(-c2[nH]c3ccccc3c2-c2ccccc2)cc1` [Example 59, 2-(4-methylsulfonylphenyl)-3-phenylindole] displayed a melting point of 221 to 222 °C. For the same molecule, on COX-2, the 50% inhibitory concentration (IC50) came to 3.86 nM. The same molecule displayed an edema (paw volume increase) in series [1] (2 h after carrageenan) of 40.8 ± 15.8%. Besides, in series [1] (3 h after carrageenan), the edema (paw volume increase) stood at 48.6 ± 14% and the “inhibitory percentage of edema” value was determined as 55.8%. Further, in series [1] (4 h after carrageenan), the edema (paw volume increase) worked out at 41.2 ± 17.4% and the “inhibitory percentage of edema” value is reported as 56.1%.
Regarding `NS(=O)(=O)c1ccc(-c2[nH]c3ccccc3c2-c2ccccc2)cc1` [Example 60, 2-(4-aminosulfonylphenyl)-3-phenylindole], the melting point was 231 to 232 °C. At COX-2, this molecule showed an IC50 of 0.161 nM. Further, the edema (paw volume increase) in series [1] (2 h after carrageenan) was found to be 32.5 ± 9.45%. For the same molecule, in series [1] (3 h after carrageenan), the edema (paw volume increase) is 56.9 ± 16.4% and the “inhibitory percentage of edema” value is reported as 48.3%. In series [1] (4 h after carrageenan), the edema (paw volume increase) came to 43.2 ± 13.9% and the “inhibitory percentage of edema” value came out at 53.9%.
`Cc1ccc(-c2c(-c3ccc(S(N)(=O)=O)cc3)[nH]c3ccccc23)cc1` [Example 66, 2-(4-aminosulfonylphenyl)-3-(4-methylphenyl)indole] came in with a melting point of 293 to 295 °C. The IC50 on COX-2 was 0.0684 nM.
On to `Cc1ccc(-c2c(-c3ccc(S(N)(=O)=O)cc3)[nH]c3ccccc23)cc1C` [Example 68, 2-(4-aminosulfonylphenyl)-3-(3,4-dimethylphenyl)indole], for which the melting point lay within 251 to 253 °C. Besides, the IC50 against COX-2 is 1.46 nM.
Consider `COc1ccc(-c2c(-c3ccc(S(N)(=O)=O)cc3)[nH]c3ccccc23)cc1` [Example 70, 2-(4-aminosulfonylphenyl)-3-(4-methoxyphenyl)indole], for which the edema (paw volume increase) in series [1] (2 h after carrageenan) is 21.9 ± 11.8%; in series [1] (3 h after carrageenan) it was 34.6 ± 10.4%; in series [1] (4 h after carrageenan), 31.9 ± 11.9%. Further, the results for the “inhibitory percentage of edema” value in series [1] (3 h after carrageenan) and in series [1] (4 h after carrageenan) were 44.7% and 38.5%, respectively.
In the case of `CS(=O)(=O)c1ccc(-c2[nH]c3ccccc3c2-c2ccc(F)cc2)cc1` [Example 71, 2-(4-methylsulfonylphenyl)-3-(4-fluorophenyl)indole], the melting point is 224 to 226 °C. In series [1] (2 h after carrageenan), this molecule gave an edema (paw volume increase) of 44 ± 21.1%. In series [1] (3 h after carrageenan), the edema (paw volume increase) turned out to be 54.4 ± 9.8% and the “inhibitory percentage of edema” value amounted to 11.1%. Also, in series [1] (4 h after carrageenan), the edema (paw volume increase) came to 49.1 ± 19% and the “inhibitory percentage of edema” value is reported as 18.4%.
`CS(=O)(=O)c1ccc(-c2[nH]c3ccc(Cl)cc3c2-c2ccc(Cl)cc2)cc1` [Example 73, 2-(4-methylsulfonylphenyl)-3-(4-chlorophenyl)-5-chloroindole] gave a melting point of 281 to 283 °C. Besides, on COX-2, it took 85.1 nM to reach half-maximal inhibition (IC50).
For `NS(=O)(=O)c1ccc(-c2[nH]c3ccc(Cl)cc3c2-c2ccc(Cl)cc2)cc1` [Example 74, 2-(4-aminosulfonylphenyl)-3-(4-chlorophenyl)-5-chloroindole], in that order: 245 to 247 °C and 0.541 nM.
The molecule `CS(=O)(=O)c1ccc(-c2[nH]c3ccc(Cl)cc3c2-c2ccccc2)cc1` [Example 76, 2-(4-methylsulfonylphenyl)-3-phenyl-5-chloroindole] had a melting point of 281 to 283 °C. Further, in series [1] (2 h after carrageenan), the edema (paw volume increase) is 45 ± 17.9% and the “inhibitory percentage of edema” value is 36.9%. In series [1] (3 h after carrageenan), the edema (paw volume increase) was 46 ± 15.4% and the “inhibitory percentage of edema” value worked out at 52.8%. In series [1] (4 h after carrageenan), the edema (paw volume increase) was 37.7 ± 15.6% and the “inhibitory percentage of edema” value worked out at 53.2%.
Regarding `NS(=O)(=O)c1ccc(-c2[nH]c3ccc(Cl)cc3c2-c2ccccc2Cl)cc1` [Example 77, 2-(4-aminosulfonylphenyl)-3-(2-chlorophenyl) -5-chloro indole], it took 100 nM to reach half-maximal inhibition at COX-2 (IC50).
`CS(=O)(=O)c1ccc(-c2[nH]c3ccc(Cl)cc3c2-c2ccccc2Cl)cc1` [Example 78, 2-(4-methylsulfonylphenyl)-3-(2-chlorophenyl) -5-chloro indole] had a melting point of 300 to 301.5 °C. The molecule also returned an IC50 against COX-2 of 10 nM.
`NS(=O)(=O)c1ccc(-c2[nH]c3ccc(Br)cc3c2-c2ccccc2)cc1` [Example 81, 2-(4-aminosulfonylphenyl)-3-phenyl-5-bromoindole] yielded a melting point of 310 to 312 °C. In addition, on COX-2, the IC50 was 5 nM.
The corresponding values for `CS(=O)(=O)c1ccc(-c2[nH]c3ccc(Br)cc3c2-c2ccccc2)cc1` [Example 82, 2-(4-methylsulfonylphenyl)-3-phenyl-5-bromoindole] are 262 to 264 °C and 1.41 nM.
On to `NS(=O)(=O)c1ccc(-c2[nH]c3ccc(Cl)cc3c2-c2cccc(Cl)c2)cc1` [Example 85, 2-(4-aminosulfonylphenyl)-3-(3-chlorophenyl)-5-chloroindole], for which the edema (paw volume increase) in series [1] (2 h after carrageenan) was 57.2 ± 13.6%; in series [1] (3 h after carrageenan), 62.3 ± 7.2%; in series [1] (4 h after carrageenan), 61.7 ± 8.8%. The entries for the “inhibitory percentage of edema” value in series [1] (2 h after carrageenan), in series [1] (3 h after carrageenan) and in series [1] (4 h after carrageenan) were 19.8%, 36.1% and 23.4%, respectively.
Consider `CS(=O)(=O)c1ccc(-c2[nH]c3ccc(Cl)cc3c2-c2cccc(Cl)c2)cc1` [Example 86, 2-(4-methylsulfonylphenyl)-3-(3-chlorophenyl)-5-chloroindole], for which the melting point lay in the range of 254 to 257 °C. The molecule further gave a 50% inhibitory concentration (IC50) on COX-2 of 0.801 nM.
In the case of `CS(=O)(=O)c1ccc(-c2[nH]c3ccc(Cl)cc3c2-c2ccc(S(C)(=O)=O)cc2)cc1` [Example 88, 2-(4-methylsulfonylphenyl)-3-(4-methylsulfonylphenyl)-5-chloroindole], the melting point was 173 to 175 °C. This molecule gave an IC50 on COX-2 of 1.48 nM.
The corresponding values for `Cc1ccc(-c2[nH]c3ccc(Cl)cc3c2-c2ccc(S(C)(=O)=O)cc2)cc1` [Example 91, 2-(4-methylphenyl)-3-(4-methylsulfonylphenyl)-5-chloroindole] are 238 to 240 °C and 1.68 nM.
For `CS(=O)(=O)c1ccc(-c2c(-c3ccc(O)cc3)[nH]c3ccc(Cl)cc23)cc1` [Example 95, 2-(4-hydroxyphenyl)-3-(4-methylsulfonylphenyl)-5-chloroindole], the melting point lay in the range of 271 to 273 °C.
Molecule `NS(=O)(=O)c1ccc(-c2[nH]c3ccccc3c2-c2ccc(O)cc2)cc1` [Example 96, 2-(4-aminosulfonylphenyl)-3-(4-hydroxyphenyl)indole] displayed a melting point of 241 to 243 °C. The same molecule had an IC50 on COX-2 of 6.44 nM.
`CC(=O)NS(=O)(=O)c1ccc(-c2[nH]c3ccccc3c2-c2ccccc2)cc1` [Example 97, 2-(N-acetamide-sulfonylphenyl)-3-phenylindole] displayed a melting point of 221 to 222 °C. This molecule also registered an IC50 at COX-2 of 0.184 nM.
As to `CS(=O)(=O)c1ccc(C2=C(c3ccccc3)C(=O)OC2)cc1` [Rofecoxib, reference compound], the figures for the edema (paw volume increase) in series [1] (2 h after carrageenan), in series [1] (3 h after carrageenan) and in series [1] (4 h after carrageenan) were 50.3 ± 5.1%, 47.2 ± 2.4% and 38.2 ± 6.7%, respectively. The “inhibitory percentage of edema” value in series [1] (2 h after carrageenan) is recorded as 29.5%; in series [1] (3 h after carrageenan), 51.6%; in series [1] (4 h after carrageenan), 52.6%.
